Experimental data published in ChEMBL document CHEMBL4387711, “Discovery of niclosamide and its O-alkylamino-tethered derivatives as potent antibacterial agents against carbapenemase-producing and/or colistin resistant Enterobacteriaceae isolates” (2019).
Active and inactive are the calls of the source.

Assays:
Type in all cases: functional, organism-based
[1] = test system: Enterobacter cloacae; experiment: Antibacterial activity against colistin-resistant Enterobacter cloacae 297 assessed as inhibition of growth at 50 uM after 18 hrs
[2] = test system: Enterobacter cloacae; experiment: Antibacterial activity against colistin-resistant Enterobacter cloacae 272 assessed as inhibition of growth at 50 uM after 18 hrs
[3] = test system: Klebsiella pneumoniae; experiment: Antibacterial activity against colistin-susceptible NDM-1/carbapenemase-producing Klebsiella pneumoniae assessed as inhibition of growth at 50 uM after 18 hrs
[4] = test system: Klebsiella aerogenes; experiment: Antibacterial activity against colistin-resistant Enterobacter aerogenes 53 assessed as inhibition of growth at 50 uM after 18 hrs
[5] = test system: Klebsiella pneumoniae; experiment: Antibacterial activity against colistin-resistant OXA-48/CTX-M-15/carbapenemase-producing Klebsiella pneumoniae 29 assessed as inhibition of growth at 50 uM after 18 hrs
[6] = test system: Enterobacter cloacae; experiment: Antibacterial activity against colistin-resistant Enterobacter cloacae 142 assessed as inhibition of growth at 50 uM after 18 hrs
[7] = test system: Klebsiella pneumoniae; experiment: Antibacterial activity against colistin-resistant VIM1/DHAI/carbapenemase-producing Klebsiella pneumoniae 21 assessed as inhibition of growth at 50 uM after 18 hrs
[8] = test system: Enterobacter cloacae; experiment: Antibacterial activity against colistin-resistant Enterobacter cloacae 280 assessed as inhibition of growth at 50 uM after 18 hrs
[9] = test system: Enterobacter cloacae; experiment: Antibacterial activity against colistin-resistant Enterobacter cloacae 190 assessed as inhibition of growth at 50 uM after 18 hrs
[10] = test system: Escherichia coli; experiment: Antibacterial activity against colistin-susceptible NDM1/KPC-producing Escherichia coli assessed as inhibition of growth at 50 uM after 18 hrs
[11] = test system: Klebsiella pneumoniae; experiment: Antibacterial activity against colistin-susceptible VIM1/carbapenemase-producing Klebsiella pneumoniae 07 assessed as inhibition of growth at 50 uM after 18 hrs
[12] = test system: Enterobacter cloacae; experiment: Antibacterial activity against colistin-resistant Enterobacter cloacae 263 assessed as inhibition of growth at 50 uM after 18 hrs
[13] = test system: Klebsiella aerogenes; experiment: Antibacterial activity against colistin-resistant Enterobacter aerogenes 3 assessed as inhibition of growth at 50 uM after 18 hrs
[14] = test system: Klebsiella pneumoniae; experiment: Antibacterial activity against Klebsiella pneumoniae CECT-997 assessed as inhibition of growth at 50 uM after 18 hrs
[15] = test system: Klebsiella pneumoniae; experiment: Antibacterial activity against colistin-susceptible OXA-48/CTX-M-15/carbapenemase-producing Klebsiella pneumoniae 28 assessed as inhibition of growth at 50 uM after 18 hrs
[16] = test system: Enterobacter cloacae; experiment: Antibacterial activity against colistin-resistant Enterobacter cloacae 32 assessed as inhibition of growth at 50 uM after 18 hrs

Measured: growth inhibition (GI)

CN(C)CCOc1ccc(Cl)cc1C(=O)Nc1ccc([N+](=O)[O-])cc1Cl
inactive: all assays above

NCCOc1ccc(Cl)cc1C(=O)Nc1ccc([N+](=O)[O-])cc1Cl
inactive: all assays above

CN1CCC(Oc2ccc(Cl)cc2C(=O)Nc2ccc([N+](=O)[O-])cc2Cl)CC1
inactive: all assays above

O=C(Nc1ccc([N+](=O)[O-])cc1Cl)c1cc(Cl)ccc1OC1CCNCC1
inactive: all assays above

CN1CCN(CCOc2ccc(Cl)cc2C(=O)Nc2ccc([N+](=O)[O-])cc2Cl)CC1
inactive: all assays above

NCCCOc1ccc(Cl)cc1C(=O)Nc1ccc([N+](=O)[O-])cc1Cl
inactive: all assays above

O=C(Nc1ccc([N+](=O)[O-])cc1Cl)c1cc(Cl)ccc1OCCN1CCOCC1
inactive: all assays above

O=C(Nc1ccc([N+](=O)[O-])cc1Cl)c1cc(Cl)ccc1OCCN1CCNCC1
inactive: all assays above

O=C(Nc1ccc([N+](=O)[O-])cc1Cl)c1cc(Cl)ccc1OCCN1CCCCC1
inactive: all assays above
